In patent US20260000684A1, “CANNABINOID COMPOSITIONS AGAINST CANCER, THEIR IDENTIFICATION AND PERSONALIZATION OF CANNABIS-BASED CANCER THERAPY” (UNIVERZA V MARIBORU, priority 2022, published 2026):

Legend:
CaCo2 = experiment: Cell viability/proliferation; format: cell-based; conditions: FIG. 10, preliminary analysis
Text: (§1) Example 5: In a preliminary analysis, the inventors investigated the effect of 16 cannabinoid compounds (Δ9-THCV-C3, Δ9-THCVA-C3 A, Δ9-THCA-C5 A, Δ9-THC-C5, Δ8-THC-C5, CBN-C5, CBL-C5, CBLA-C5 A, (E)-CBG-C5, (E)-CBGA-C5 A, CBD-C5, CBDV-C3, CBDVA-C3, CBDA-C5, CBC-C5, and CBCA-C5 A) on cell viability/proliferation in two colorectal carcinoma cell lines (HCT116 and CaCo2) (FIG. 10).

HCT116 = experiment: Cell viability/proliferation; format: cell-based; conditions: FIG. 10, preliminary analysis
Text: as §1

[1] = tested on: melanoma cell lines (COLO38 and OCM-1); conditions: CB2 and CB1 expressing melanoma cell lines COLO38 and OCM-1; cited from earlier work
[2] = tested on: human A375, SK-MEL-28, and CHL-1 melanoma cell lines; conditions: A375, SK-MEL-28, CHL-1; Armstrong et al.; cited from earlier work

Compound | effect in reducing cell viability (CaCo2) | effect in reducing cell viability (HCT116) | viability [1] | effect of treatment on melanoma cell lines [2]
CCCCCc1cc(O)c2c(c1)OC(C)(CCC=C(C)C)C=C2 (racemic) [CBC, (±)-cannabichromene] | strongest effect in reducing cell viability | strongest effect in reducing cell viability |  | 
CCCCCc1cc(O)c2c(c1)OC(C)(C)[C@@H]1CC=C(C)C[C@@H]21 (relative stereo) [Δ8THC, (−)-Δ^8-trans-(6aR,10aR)-Δ^8-tetrahydrocannabinol] | strongest effect in reducing cell viability | strongest effect in reducing cell viability |  | 
CCCCCc1cc(O)c(C/C=C(\C)CCC=C(C)C)c(O)c1 [CBG, cannabigerol] | strongest effect in reducing cell viability | strongest effect in reducing cell viability |  | 
CCCCCc1cc(O)c2c(c1)OC(C)(C)c1ccc(C)cc1-2 [CBN, cannabinol] | strongest effect in reducing cell viability | strongest effect in reducing cell viability |  | 
Cc1c(C(=O)c2cccc3ccccc23)c2cccc3c2n1[C@H](CN1CCOCC1)CO3 [WIN55,212-2] |  |  | reduce viability in a CB1/CB2-independent manner | 
CCCCCc1cc(O)c2c(c1)OC(C)(C)[C@@H]1CCC(C)=C[C@@H]21 [Δ9THC, Δ^9-tetrahydrocannabinol, reference compound] | strongest effect in reducing cell viability | strongest effect in reducing cell viability |  | activation of autophagy, loss of cell viability, and activation of apoptosis
(−)-cannabidiol [CBD, reference compound] | strongest effect in reducing cell viability | strongest effect in reducing cell viability |  | 
